Assays:
[1] = tested on: RENCA tumour cells; assay: Antitumor activity, RENCA model (tumour volume); type: in vivo, mouse; conditions: D18 and D22, compared to untreated and vehicle groups, FIG. 3B
Protocol: Treatment schedule—The start of first dosing was considered as D0. On D0, non-engrafted mice were randomized according to their individual body weight into groups of 9 mice using Vivo Manager® software (Biosystemes, Couternon, France). On D0, the mice received vehicle (culture medium) or bacterial strain (2×10^8 in 200 μL, PO). On D14, all mice were engrafted with RENCA tumour cells injected SC into the ventral surface of the lower flank as described below. Treatment with anti-CTLA-4 (10 mg/kg, IP) and anti-PDL1 (clone 10F.9G2, 10 mg/kg) was initiated when tumours reached a volume of 50-70 mm3.
Orthotopic induction of RENCA tumor cells in animals by SC injection—On D14, one million (1×10^6) RENCA tumor cells in 50 μL RPMI 1640 medium were transplanted via SC injection into the ventral surface of the lower flank of mice.
Euthanasia—Each mouse was euthanized when it reached a humane endpoint as described in section below, or after a maximum of 6 weeks post start of dosing.
Evaluation of tumour burden at euthanasia—At the time of termination, tumours were collected and their volume evaluated.
Clinical monitoring—The length and width of the tumour was measured twice a week with callipers and the volume of the tumour was estimated by this formula [52]: […]

[2] = tested on: immature dendritic cells; assay: Cytokine production in immature dendritic cells; type: cell-based; conditions: MRX518 10^7/ml, LPS 100 ng/ml
Protocol: This study tested the effect of the bacterial strain MRX518 alone and in combination with lipopolysaccharide (LPS) on cytokine production in immature dendritic cells.
A monocyte population was isolated from peripheral blood mononuclear cells (PBMCs). The monocyte cells were subsequently differentiated into immature dendritic cells. The immature dendritic cells were plated out at 200,000 cells/well and incubated with MRX518 at a final concentration of 10^7/ml, with the optional addition of LPS at a final concentration of 100 ng/ml. The negative control involved incubating the cells with RPMI media alone and positive controls incubated the cells with LPS at a final concentration of 100 ng/ml. The cytokine content of the cells was then analysed.

[3] = compared to the negative control, FIGS. 4a-d

Compound | tumour size [1] | level of IL-1β ([2]; FIGS. 4b, 4d) | level of IL-6 [2, 3] | level of TNF-α [2, 3]
CC(=O)O[C@H]1C(=O)[C@@]2(C)[C@H]([C@H](OC(=O)c3ccccc3)[C@]3(O)C[C@H](OC(=O)[C@H](O)[C@@H](NC(=O)c4ccccc4)c4ccccc4)C(C)=C1C3(C)C)[C@]1(OC(C)=O)CO[C@@H]1C[C@@H]2O [Paclitaxel] | (almost) complete reduction in tumour size | – | – | –
lipopolysaccharide [LPS] | – | not IL-1β | increase | increase

— US20230048366A1, “COMBINATION THERAPY FOR TREATING OR PREVENTING CANCER” (4D Pharma Research Limited, priority 2018, published 2023)
